# Patent publication US20100093706A1, “MULTIMEDIATOR TRANSPORTER INHIBITORS FOR USE IN TREATMENT OF CENTRAL NERVOUS SYSTEM DISORDERS” (priority 2006, published 2010)
# What was measured:
# DAT (SLC6A3) = target: T1, DAT (SLC6A3) (Homo sapiens, UniProt Q01959); experiment: in vitro inhibition profile, IC50 of DAT (uptake assay); format: cell-based
# T1 construct: expressed in transfected cells
# Method: Before the assay, cells expressing DAT are washed once with KRH and equilibrated for 5 min. The cells may be assayed in 24-well plates and incubated for 2-5 min. with tritiated amines. Nontransported inhibitors were preincubated for 5 min, and substrates were applied together with the tritiated substrate.
# Experiments to determine the ionic requirements for DAT-mediated uptake are done in KRH buffer, substituting LiCl or choline Cl for NaCl (sodium-dependence) or substituting D-gluconates for NaCl and KCl, and Ca(NO3)2 for CaCl2 (chloride dependence). Cells are washed twice with sodium- or chloride-free KRH before the assay (each wash step at least 5 min). In all transport assays, incubation periods and substrate concentrations are chosen such that uptake obeyed first-order rate kinetics.
# Vmax values for amine uptake in stable transfected DAT-cells are determined in parallel assays for at least two amines per experiment and expressed as relative values.
# rat = experiment: acute single-dose toxicology in rat; format: in vivo
# Method: An in vivo evaluation was carried out to determine the maximum tolerated dose of numerous test compounds in rat. The compounds were administered i.v., and the animals were then observed for 72 hours.
# Briefly, experimental rats, in groups of 5 animals, were administered with various doses of respective inhibitors (e.g. 30, 90, 120, and 200 mg/kg), and the observed toxicological effects were recorded.
# sigma-1 (σ1) receptor = sigma-1 (σ1) receptor (Homo sapiens, UniProt Q99720); experiment: in vitro selectivity panel, sigma-1 receptor; format: binding
# Sequence of sigma-1 (σ1) receptor (Q99720 whole entry): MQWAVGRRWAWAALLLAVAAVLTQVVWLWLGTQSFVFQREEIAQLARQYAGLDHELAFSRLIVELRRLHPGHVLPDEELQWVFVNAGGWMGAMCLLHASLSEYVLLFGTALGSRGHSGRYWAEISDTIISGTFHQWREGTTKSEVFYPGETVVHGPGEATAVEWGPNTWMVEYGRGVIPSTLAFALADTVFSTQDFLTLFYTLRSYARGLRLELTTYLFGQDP
# Method: The in vitro selectivity profile of two representative subject compounds, (3) and (1), are also tested against a panel of other receptors, including the M1 receptor, Histamine H1 receptor, sigma-1 (σ1) receptor, β1-adrenergic receptor, and dopamine D2 receptor. Representative results are listed below in Table III: […]
# [1] = target: NET (norepinephrine transporter or SLC6A2) (Homo sapiens, UniProt P23975); experiment: cell-based; conditions: own compounds tested as racemic mixtures of enriched diastereomers
# Sequence of NET (norepinephrine transporter or SLC6A2) (P23975 whole entry): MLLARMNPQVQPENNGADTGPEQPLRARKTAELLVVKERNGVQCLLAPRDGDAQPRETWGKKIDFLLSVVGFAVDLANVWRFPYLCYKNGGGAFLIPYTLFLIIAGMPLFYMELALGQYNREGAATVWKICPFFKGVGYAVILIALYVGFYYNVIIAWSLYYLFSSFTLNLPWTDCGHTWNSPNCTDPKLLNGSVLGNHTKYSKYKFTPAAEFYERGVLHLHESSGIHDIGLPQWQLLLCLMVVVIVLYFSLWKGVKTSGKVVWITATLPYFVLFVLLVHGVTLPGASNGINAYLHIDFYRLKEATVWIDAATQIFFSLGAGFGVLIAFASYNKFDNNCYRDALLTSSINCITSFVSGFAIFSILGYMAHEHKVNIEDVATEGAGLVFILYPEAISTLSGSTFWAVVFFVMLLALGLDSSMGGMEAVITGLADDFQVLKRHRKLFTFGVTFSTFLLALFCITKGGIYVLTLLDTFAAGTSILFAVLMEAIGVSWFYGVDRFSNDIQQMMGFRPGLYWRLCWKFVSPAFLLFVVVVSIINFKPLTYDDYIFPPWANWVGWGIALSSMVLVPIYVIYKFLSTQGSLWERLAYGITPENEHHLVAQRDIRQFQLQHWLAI
# T1 sequence (Q01959 whole entry): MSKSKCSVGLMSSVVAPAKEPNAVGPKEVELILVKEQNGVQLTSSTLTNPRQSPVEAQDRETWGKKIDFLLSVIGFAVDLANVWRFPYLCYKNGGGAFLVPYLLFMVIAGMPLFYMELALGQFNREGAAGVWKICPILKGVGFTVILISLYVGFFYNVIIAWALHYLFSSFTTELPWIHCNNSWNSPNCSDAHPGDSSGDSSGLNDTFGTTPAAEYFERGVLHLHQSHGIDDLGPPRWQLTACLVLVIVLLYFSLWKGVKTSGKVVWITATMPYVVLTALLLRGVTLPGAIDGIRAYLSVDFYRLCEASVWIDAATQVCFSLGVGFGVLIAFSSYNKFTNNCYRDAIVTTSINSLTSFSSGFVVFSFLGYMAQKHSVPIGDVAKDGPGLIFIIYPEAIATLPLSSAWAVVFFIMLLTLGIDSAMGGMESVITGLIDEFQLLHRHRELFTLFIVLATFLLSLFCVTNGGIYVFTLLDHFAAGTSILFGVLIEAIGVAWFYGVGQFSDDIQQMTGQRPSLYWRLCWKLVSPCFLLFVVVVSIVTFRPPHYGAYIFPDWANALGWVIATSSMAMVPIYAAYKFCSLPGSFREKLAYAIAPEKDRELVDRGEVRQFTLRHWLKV
compound,measurement,setting,value
CC1CCN(CC2(c3ccc(Cl)cc3)CCC2)CC1COc1ccc(C(F)(F)F)cc1 (centres unmarked) [(1)],IC50,DAT (SLC6A3),1 nM
same,"acute single dose toxicology, observed symptoms","rat; rat (n = 5), 200 mg/kg, i.v., observed 72 hours","decreased grip strength, and slight depression"
same,"acute single dose toxicology, observed symptoms","rat; rat, doses below 120 mg/kg",no significant observed symptoms
same,Sigma σ1 (nM)h,sigma-1 (σ1) receptor,5000 nM
same,IC50,[1],175 nM
